From US20260184675A1, “CHIRAL ISOMERIC SULFITE COMPOUND AND APPLICATION THEREOF” (Chengdu Hanova BioSciences Co., Ltd, priority 2024, published 2026)

Assays:
Assay type in all cases: in vivo
[1] = tested on: pest eggs of Tetranychus cinnabarinus; test: Effect on hatching of pest eggs of Tetranychus cinnabarinus, leaf disc method; conditions: for Hatching rate (%): 7 days after insecticide delivery
Method: (§1) • (1) Preparation of leaf discs containing eggs: 20 female adult mites of Tetranychus cinnabarinus were transferred onto leaf discs of Vicia faba with a diameter of 2.0 cm (with wetted filter paper at the bottom), then covered it with a lidded culture dish and cultivated under moisturizing conditions, the adult mites were removed within 36 hours and microscopic examination and counting were performed on leaf discs containing eggs. • (2) Investigation of egg population base: Before pesticide soaking, a microscopic examination was conducted on the egg basic number of each leaf disc, with 2 replicates set for each treatment. • (3) Pesticide soaking treatment: The leaf butterflies loaded with mite eggs were soaked in clear water and sulfite compounds for 10 seconds, respectively, then taken out and cultivated under moisturizing conditions. Each treatment should be repeated for no less than 3 times. • (4) Cultivation and observation: The […] were cultivated under normal conditions. Five days after insecticide delivery, the hatching status of mite eggs was investigated. • Note: The temperature and humidity conditions of the constant temperature and humidity incubator after the treatment should be controlled so as to avoid excessive temperature differences, which may cause generation and dripping of condensate water in the culture dish, resulting in abnormal death of eggs due to soaking in water; it is also necessary to ensure sufficient strong ambient light, without directing irradiating the leaves. • (5) Survey of Results: The experimental materials of each treatment group were regularly hydrated and moisturized, and the hatching of eggs was observed. On the 7th day after insecticide delivery, the number of hatched eggs for each treatment was recorded, and the survey of results was recorded in the original notebook. According to the experimental requirements and characteristics of agents, the survey time can be shortened or extended. • 1) Surveying and recording the number of hatched eggs for each treatment. • 2) Photographing and recording whether there was any pesticide damage to the leaf discs of Vicia faba. • 3) Recording the developmental status of experimental mite eggs, behavior status of nymph mites, including abnormal phenomena such as delayed or stopped development of mite eggs, difficulty in breaking hull for nymph mites, or painful struggles after hatching, etc. • (6) Calculation method: Based on the survey data, the prevention and control effect of each treatment was calculated according to the following formula, and the calculation results were kept to two decimal places. [formula] [formula] [table]

[2] = tested on: eggs of Tetranychus urticae; test: Effect on hatching of eggs of Tetranychus urticae, leaf disc method; conditions: 5 ppm; for Hatching rate (%): 5 days after insecticide delivery
Method: as §1, with “extended.” for “extended. • 1) Surveying and recording the number of hatched eggs for each treatment. • 2) Photographing and recording whether there was any pesticide damage to the leaf discs of Vicia faba. • 3) Recording the developmental status of experimental mite eggs, behavior status of nymph mites, including abnormal phenomena such as delayed or stopped development of mite eggs, difficulty in breaking hull for nymph mites, or painful struggles after hatching, etc. • (6) Calculation method: Based on the survey data, the prevention and control effect of each treatment was calculated according to the following formula, and the calculation results were kept to two decimal places. [formula] [formula] [table]”
(§2) • 1) Surveying and recording the number of hatched eggs for each treatment. • 2) Photographing and recording whether there was any pesticide damage to the leaf discs of Vicia faba. • 3) Recording the developmental status of experimental mite eggs, behavior status of nymph mites, including abnormal phenomena such as delayed or stopped development of mite eggs, difficulty in breaking hull for nymph mites, or painful struggles after hatching, etc. • (6) Calculation method: Based on the survey data, the prevention and control effect of each treatment was calculated according to the following formula, and the calculation results were kept to two decimal places.
(§3) This test adopted the method in Test Example 1 of technical section, mainly used leaf disc method to explore the inhibitory effect on hatching of eggs of Tetranychus urticae by compounds 1-(S,S), 1-(S,R), 1-(R,R), 1-(R,S), 1′-(S,S), 1′-(S,R), 1′-(R,R), 1′-(R,S), compound 1, compound 1′, S-10, R-10, S-10′, R-10′, compound 10, compound 10′, compound 19-(S,S), 19-(S,R), 19-(R,R), 19-(R,S), 19′-(S,S), 19′-(S,R), 19′-(R,R), 19′-(R,S), compound 19, and compound 19′. The concentration of all compounds was 5 ppm.

[3] = tested on: eggs of Panonychus citri; test: Effect on hatching of eggs of Panonychus citri, leaf disc method; conditions: 1 ppm; for Hatching rate (%), Replicate 1 / Hatching rate (%), Replicate 2 / Hatching rate (%), Replicate 3 / Number of hatched larvae 5 days after insecticide delivery, Replicate 1 / Number of hatched larvae 5 days after insecticide delivery, Replicate 2 / Number of hatched larvae 5 days after insecticide delivery, Replicate 3: Panonychus citri eggs; for Hatching rate (%), Replicate 1 / Hatching rate (%), Replicate 2 / Hatching rate (%), Replicate 3: 5 days after delivery; for Number of hatched larvae 5 days after insecticide delivery, Replicate 1 / Number of hatched larvae 5 days after insecticide delivery, Replicate 2 / Number of hatched larvae 5 days after insecticide delivery, Replicate 3: leaf disc
Method: as §1, with “extended.” for “extended. • 1) Surveying and recording the number of hatched eggs for each treatment. • 2) Photographing and recording whether there was any pesticide damage to the leaf discs of Vicia faba. • 3) Recording the developmental status of experimental mite eggs, behavior status of nymph mites, including abnormal phenomena such as delayed or stopped development of mite eggs, difficulty in breaking hull for nymph mites, or painful struggles after hatching, etc. • (6) Calculation method: Based on the survey data, the prevention and control effect of each treatment was calculated according to the following formula, and the calculation results were kept to two decimal places. [formula] [formula] [table]”
as §2
as §3, with “the” for “the inhibitory”, “Panonychus citri” for “Tetranychus urticae”, “1” for “5”

[4] = Replicate 1, listed as 1′-(S, R)
[5] = Replicate 2, listed as 1′-(S, R)
[6] = Replicate 1, listed as 1′-(S, S)
[7] = Replicate 2, listed as 1′-(S, S)
[8] = Replicate 1, listed as 19-(R, R)
[9] = Replicate 2, listed as 19-(R, R)

SMILES: CC(COc1ccc(Cl)cc1Cl)OS(=O)OCCF [1′-(S,R)]
- Hatching rate (%) ([1]; 0.25 mg/L, Replicate 1): 42.86%
- Hatching rate (%) ([1]; 0.25 mg/L, Replicate 2): 44.83%
- Number of hatched larvae 7 days after insecticide delivery ([1]; 0.25 mg/L, Replicate 1): 28
- Number of hatched larvae 7 days after insecticide delivery ([1]; 0.25 mg/L, Replicate 2): 32
- Hatching rate (%) ([1]; 0.5 mg/L, Replicate 1): 8.89%
- Hatching rate (%) ([1]; 0.5 mg/L, Replicate 2): 3.23%
- Number of hatched larvae 7 days after insecticide delivery ([1]; 0.5 mg/L, Replicate 1): 41
- Number of hatched larvae 7 days after insecticide delivery ([1]; 0.5 mg/L, Replicate 2): 60
- Hatching rate (%) ([1]; 1 mg/L, Replicate 1): 0.00%
- Hatching rate (%) ([1]; 1 mg/L, Replicate 2): 0.00%
- Number of hatched larvae 7 days after insecticide delivery ([1]; 1 mg/L, Replicate 1): 69
- Number of hatched larvae 7 days after insecticide delivery ([1]; 1 mg/L, Replicate 2): 78
- inhibitory effect on the hatching of pest eggs of Tetranychus cinnabarinus (in words) ([1]; 1 ppm): excellent inhibitory effects
- inhibitory activity on the hatching of eggs of Tetranychus urticae (in words) [2]: strong inhibitory activities
- Hatching rate (%) [2, 4]: 0.00%
- Hatching rate (%) [2, 5]: 0.00%
- Number of hatched larvae 5 days after insecticide delivery [2, 4]: 0
- Number of hatched larvae 5 days after insecticide delivery [2, 5]: 0
- inhibitory effect on the hatching of eggs of Panonychus citri (in words) [3]: good inhibitory effects
- Hatching rate (%), Replicate 1 ([3]; listed as 1′-(S, R)): 0.00%
- Hatching rate (%), Replicate 2 ([3]; listed as 1′-(S, R)): 0.00%
- Hatching rate (%), Replicate 3 ([3]; listed as 1′-(S, R)): 0.00%
- Number of hatched larvae 5 days after insecticide delivery, Replicate 1 ([3]; listed as 1′-(S, R)): 0
- Number of hatched larvae 5 days after insecticide delivery, Replicate 2 ([3]; listed as 1′-(S, R)): 0
- Number of hatched larvae 5 days after insecticide delivery, Replicate 3 ([3]; listed as 1′-(S, R)): 0

SMILES: CC(COc1ccc(Cl)cc1Cl)OS(=O)OCCF [1′-(S,S)]
- Hatching rate (%) ([1]; 0.25 mg/L, Replicate 1): 64.58%
- Hatching rate (%) ([1]; 0.25 mg/L, Replicate 2): 69.57%
- Number of hatched larvae 7 days after insecticide delivery ([1]; 0.25 mg/L, Replicate 1): 17
- Number of hatched larvae 7 days after insecticide delivery ([1]; 0.25 mg/L, Replicate 2): 14
- Hatching rate (%) ([1]; 0.5 mg/L, Replicate 1): 27.59%
- Hatching rate (%) ([1]; 0.5 mg/L, Replicate 2): 12.00%
- Number of hatched larvae 7 days after insecticide delivery ([1]; 0.5 mg/L, Replicate 1): 42
- Number of hatched larvae 7 days after insecticide delivery ([1]; 0.5 mg/L, Replicate 2): 66
- Hatching rate (%) ([1]; 1 mg/L, Replicate 1): 16.36%
- Hatching rate (%) ([1]; 1 mg/L, Replicate 2): 14.63%
- Number of hatched larvae 7 days after insecticide delivery ([1]; 1 mg/L, Replicate 1): 46
- Number of hatched larvae 7 days after insecticide delivery ([1]; 1 mg/L, Replicate 2): 35
- Hatching rate (%) [2, 6]: 20.63%
- Hatching rate (%) [2, 7]: 16.22%
- Number of hatched larvae 5 days after insecticide delivery [2, 6]: 13
- Number of hatched larvae 5 days after insecticide delivery [2, 7]: 12
- Hatching rate (%), Replicate 1 ([3]; listed as 1′-(S, S)): 14.73%
- Hatching rate (%), Replicate 2 ([3]; listed as 1′-(S, S)): 16.05%
- Hatching rate (%), Replicate 3 ([3]; listed as 1′-(S, S)): 16.67%
- Number of hatched larvae 5 days after insecticide delivery, Replicate 1 ([3]; listed as 1′-(S, S)): 19
- Number of hatched larvae 5 days after insecticide delivery, Replicate 2 ([3]; listed as 1′-(S, S)): 13
- Number of hatched larvae 5 days after insecticide delivery, Replicate 3 ([3]; listed as 1′-(S, S)): 18

SMILES: CCC(COc1ccc(Cl)cc1Cl)OS(=O)OCCF [19-(R,R)]
- Hatching rate (%) ([1]; 0.25 mg/L, Replicate 1): 75.00%
- Hatching rate (%) ([1]; 0.25 mg/L, Replicate 2): 76.00%
- Number of hatched larvae 7 days after insecticide delivery ([1]; 0.25 mg/L, Replicate 1): 18
- Number of hatched larvae 7 days after insecticide delivery ([1]; 0.25 mg/L, Replicate 2): 18
- Hatching rate (%) ([1]; 0.5 mg/L, Replicate 1): 36.23%
- Hatching rate (%) ([1]; 0.5 mg/L, Replicate 2): 36.00%
- Number of hatched larvae 7 days after insecticide delivery ([1]; 0.5 mg/L, Replicate 2): 34
- Hatching rate (%) ([1]; 1 mg/L, Replicate 1): 14.89%
- Hatching rate (%) ([1]; 1 mg/L, Replicate 2): 16.67%
- Number of hatched larvae 7 days after insecticide delivery ([1]; 1 mg/L, Replicate 1): 40
- Number of hatched larvae 7 days after insecticide delivery ([1]; 1 mg/L, Replicate 2): 55
- Hatching rate (%) [2, 8]: 17.98%
- Hatching rate (%) [2, 9]: 17.92%
- Number of hatched larvae 5 days after insecticide delivery [2, 8]: 16
- Number of hatched larvae 5 days after insecticide delivery [2, 9]: 19
- Hatching rate (%), Replicate 1 ([3]; listed as 19-(R, R)): 7.52%
- Hatching rate (%), Replicate 2 ([3]; listed as 19-(R, R)): 8.41%
- Hatching rate (%), Replicate 3 ([3]; listed as 19-(R, R)): 8.33%
- Number of hatched larvae 5 days after insecticide delivery, Replicate 1 ([3]; listed as 19-(R, R)): 10
- Number of hatched larvae 5 days after insecticide delivery, Replicate 2 ([3]; listed as 19-(R, R)): 9
- Number of hatched larvae 5 days after insecticide delivery, Replicate 3 ([3]; listed as 19-(R, R)): 7
